Data published in patent US8748458B2, “Scriptaid isosteres and their use in therapy” (Karus Therapeutics Limited, priority 2009, dated 2014).

Legend:
[1] = system: Total HDAC (HeLa Nuclear Extracts); assay: Total HDAC inhibition (HeLa nuclear extracts); type: biochemical
HDAC1 = HDAC1 (Homo sapiens (Human), UniProt Q13547); assay: HDAC1 inhibition; type: biochemical
HDAC2 = HDAC2 (Homo sapiens (Human), UniProt Q92769); assay: HDAC2 inhibition; type: biochemical
HDAC6 = HDAC6 (Homo sapiens (Human), UniProt Q9UBN7); assay: HDAC6 inhibition; type: biochemical
Sequence of HDAC6 (Q9UBN7 whole entry, species assumed): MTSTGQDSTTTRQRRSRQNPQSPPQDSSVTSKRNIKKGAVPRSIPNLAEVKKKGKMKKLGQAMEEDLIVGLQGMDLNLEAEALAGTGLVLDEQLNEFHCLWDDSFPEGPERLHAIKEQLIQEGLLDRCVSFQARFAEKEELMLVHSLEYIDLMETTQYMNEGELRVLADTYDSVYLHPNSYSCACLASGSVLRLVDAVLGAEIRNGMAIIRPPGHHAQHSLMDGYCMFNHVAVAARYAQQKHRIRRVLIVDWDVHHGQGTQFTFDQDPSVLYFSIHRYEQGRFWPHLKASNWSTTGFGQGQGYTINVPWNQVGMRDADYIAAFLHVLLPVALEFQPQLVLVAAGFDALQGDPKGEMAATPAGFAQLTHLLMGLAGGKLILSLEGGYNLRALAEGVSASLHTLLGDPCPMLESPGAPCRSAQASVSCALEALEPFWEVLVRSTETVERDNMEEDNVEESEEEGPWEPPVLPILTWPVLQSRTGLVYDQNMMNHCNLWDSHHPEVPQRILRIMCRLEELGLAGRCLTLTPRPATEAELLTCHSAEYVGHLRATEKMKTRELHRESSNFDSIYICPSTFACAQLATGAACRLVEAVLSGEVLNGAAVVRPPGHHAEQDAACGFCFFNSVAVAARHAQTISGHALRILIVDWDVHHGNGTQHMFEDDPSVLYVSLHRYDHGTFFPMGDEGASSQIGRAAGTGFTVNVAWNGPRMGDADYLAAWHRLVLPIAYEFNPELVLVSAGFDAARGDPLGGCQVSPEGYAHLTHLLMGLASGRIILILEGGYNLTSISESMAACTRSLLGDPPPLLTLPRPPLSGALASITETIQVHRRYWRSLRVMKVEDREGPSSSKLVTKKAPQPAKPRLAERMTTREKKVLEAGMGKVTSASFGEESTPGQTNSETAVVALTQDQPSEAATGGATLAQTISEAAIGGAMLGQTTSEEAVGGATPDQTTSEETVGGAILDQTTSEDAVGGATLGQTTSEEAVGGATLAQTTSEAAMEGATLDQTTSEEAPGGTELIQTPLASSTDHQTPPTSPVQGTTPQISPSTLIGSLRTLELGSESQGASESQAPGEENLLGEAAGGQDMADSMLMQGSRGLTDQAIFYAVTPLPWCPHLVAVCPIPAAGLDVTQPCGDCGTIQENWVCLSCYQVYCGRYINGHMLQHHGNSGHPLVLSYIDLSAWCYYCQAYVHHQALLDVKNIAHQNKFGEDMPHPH

HDAC9 = HDAC9 (Homo sapiens (Human), UniProt Q9UKV0); assay: HDAC9 inhibition; type: biochemical
Sequence of HDAC9 (Q9UKV0 whole entry, species assumed): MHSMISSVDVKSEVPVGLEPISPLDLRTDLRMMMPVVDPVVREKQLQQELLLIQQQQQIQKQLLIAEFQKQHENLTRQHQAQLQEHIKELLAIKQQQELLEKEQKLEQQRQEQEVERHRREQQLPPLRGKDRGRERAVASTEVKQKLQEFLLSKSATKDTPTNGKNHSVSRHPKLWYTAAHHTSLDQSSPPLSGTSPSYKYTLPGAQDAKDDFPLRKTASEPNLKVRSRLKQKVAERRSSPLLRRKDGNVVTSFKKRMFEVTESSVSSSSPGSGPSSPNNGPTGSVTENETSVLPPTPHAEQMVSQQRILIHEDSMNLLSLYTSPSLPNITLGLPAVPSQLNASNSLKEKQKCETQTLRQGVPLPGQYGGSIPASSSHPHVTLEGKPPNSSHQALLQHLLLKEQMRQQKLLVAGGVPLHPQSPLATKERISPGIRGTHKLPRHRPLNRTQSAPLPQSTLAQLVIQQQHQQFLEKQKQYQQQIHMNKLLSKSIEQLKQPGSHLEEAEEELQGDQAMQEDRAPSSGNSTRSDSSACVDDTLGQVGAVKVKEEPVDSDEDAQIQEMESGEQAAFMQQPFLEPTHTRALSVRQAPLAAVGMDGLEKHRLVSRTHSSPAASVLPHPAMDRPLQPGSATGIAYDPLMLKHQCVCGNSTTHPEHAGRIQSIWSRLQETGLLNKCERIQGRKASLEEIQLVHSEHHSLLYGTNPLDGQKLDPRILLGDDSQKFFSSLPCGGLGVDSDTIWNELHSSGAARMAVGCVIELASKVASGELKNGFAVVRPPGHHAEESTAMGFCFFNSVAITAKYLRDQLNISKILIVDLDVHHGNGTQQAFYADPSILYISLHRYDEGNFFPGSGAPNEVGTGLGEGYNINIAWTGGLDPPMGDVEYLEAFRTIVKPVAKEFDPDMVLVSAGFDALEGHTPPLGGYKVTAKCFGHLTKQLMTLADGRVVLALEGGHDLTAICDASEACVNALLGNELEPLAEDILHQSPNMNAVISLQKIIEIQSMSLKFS

MCF7 Breast Tumour Cell = MCF7 Breast Tumour Cell Proliferation Inhibition; type: cell-based; conditions: Homo sapiens; MCF7 cells
HDAC3 = HDAC3 (Homo sapiens (Human), UniProt O15379); assay: HDAC3 inhibition; type: biochemical
Sequence of HDAC3 (O15379 whole entry, species assumed): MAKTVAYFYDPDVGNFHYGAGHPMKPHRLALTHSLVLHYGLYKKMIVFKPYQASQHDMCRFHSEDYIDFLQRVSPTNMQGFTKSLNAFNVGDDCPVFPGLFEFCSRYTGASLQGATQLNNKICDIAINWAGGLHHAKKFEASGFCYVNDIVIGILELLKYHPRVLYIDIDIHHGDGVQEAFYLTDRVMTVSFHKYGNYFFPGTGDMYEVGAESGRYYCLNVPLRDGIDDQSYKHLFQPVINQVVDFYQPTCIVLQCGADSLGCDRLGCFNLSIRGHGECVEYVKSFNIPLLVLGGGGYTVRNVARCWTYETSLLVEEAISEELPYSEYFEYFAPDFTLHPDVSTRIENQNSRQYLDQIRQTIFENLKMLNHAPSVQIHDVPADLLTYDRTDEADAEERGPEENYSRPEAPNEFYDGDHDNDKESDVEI
Sequence of HDAC3 (Q9Y618 395-489 partner, species assumed): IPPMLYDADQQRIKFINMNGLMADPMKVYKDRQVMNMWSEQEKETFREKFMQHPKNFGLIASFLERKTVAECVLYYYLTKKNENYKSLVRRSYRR

HDAC4 = HDAC4 (Homo sapiens (Human), UniProt P56524); assay: HDAC4 inhibition; type: biochemical
Sequence of HDAC4 (P56524 whole entry, species assumed): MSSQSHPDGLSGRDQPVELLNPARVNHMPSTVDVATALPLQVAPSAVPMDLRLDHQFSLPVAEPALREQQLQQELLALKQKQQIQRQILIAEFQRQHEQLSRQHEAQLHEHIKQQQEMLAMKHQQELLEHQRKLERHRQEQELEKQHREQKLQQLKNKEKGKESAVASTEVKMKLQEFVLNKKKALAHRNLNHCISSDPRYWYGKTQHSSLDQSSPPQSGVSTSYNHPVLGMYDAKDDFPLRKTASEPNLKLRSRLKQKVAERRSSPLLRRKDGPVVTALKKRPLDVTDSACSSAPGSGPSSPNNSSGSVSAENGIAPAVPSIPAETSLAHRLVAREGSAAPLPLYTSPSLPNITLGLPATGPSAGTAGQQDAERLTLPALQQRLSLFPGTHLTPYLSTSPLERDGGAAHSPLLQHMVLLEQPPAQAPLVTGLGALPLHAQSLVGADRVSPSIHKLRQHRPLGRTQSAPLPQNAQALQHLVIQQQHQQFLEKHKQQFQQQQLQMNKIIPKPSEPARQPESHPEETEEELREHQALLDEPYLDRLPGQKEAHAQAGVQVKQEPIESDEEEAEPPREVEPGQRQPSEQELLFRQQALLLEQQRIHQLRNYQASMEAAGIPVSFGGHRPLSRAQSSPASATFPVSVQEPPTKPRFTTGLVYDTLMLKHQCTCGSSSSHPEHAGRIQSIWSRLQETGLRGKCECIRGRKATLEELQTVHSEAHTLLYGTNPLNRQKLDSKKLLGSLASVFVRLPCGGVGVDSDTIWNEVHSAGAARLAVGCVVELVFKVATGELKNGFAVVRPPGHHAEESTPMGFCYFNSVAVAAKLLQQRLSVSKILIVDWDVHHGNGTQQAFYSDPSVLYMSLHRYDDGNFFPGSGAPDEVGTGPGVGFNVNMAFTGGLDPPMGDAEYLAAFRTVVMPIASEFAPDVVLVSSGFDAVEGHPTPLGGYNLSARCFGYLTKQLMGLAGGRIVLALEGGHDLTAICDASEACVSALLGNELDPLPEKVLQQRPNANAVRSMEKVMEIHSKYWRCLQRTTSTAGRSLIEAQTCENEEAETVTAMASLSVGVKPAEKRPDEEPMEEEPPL

HDAC5 = HDAC5 (Homo sapiens (Human), UniProt Q9UQL6); assay: HDAC5 inhibition; type: biochemical
HDAC8 = HDAC8 (Homo sapiens (Human), UniProt Q9BY41); assay: HDAC8 inhibition; type: biochemical
HDAC10 = HDAC10 (Homo sapiens (Human), UniProt Q969S8); assay: HDAC10 inhibition; type: biochemical
HDAC11 = HDAC11 (Homo sapiens (Human), UniProt Q96DB2); assay: HDAC11 inhibition; type: biochemical
TNFα = TNFα inhibition (LPS-stimulated human PBMCs); type: cell-based; conditions: PBMC

Sequence of HDAC2 (Q92769 whole entry, species assumed): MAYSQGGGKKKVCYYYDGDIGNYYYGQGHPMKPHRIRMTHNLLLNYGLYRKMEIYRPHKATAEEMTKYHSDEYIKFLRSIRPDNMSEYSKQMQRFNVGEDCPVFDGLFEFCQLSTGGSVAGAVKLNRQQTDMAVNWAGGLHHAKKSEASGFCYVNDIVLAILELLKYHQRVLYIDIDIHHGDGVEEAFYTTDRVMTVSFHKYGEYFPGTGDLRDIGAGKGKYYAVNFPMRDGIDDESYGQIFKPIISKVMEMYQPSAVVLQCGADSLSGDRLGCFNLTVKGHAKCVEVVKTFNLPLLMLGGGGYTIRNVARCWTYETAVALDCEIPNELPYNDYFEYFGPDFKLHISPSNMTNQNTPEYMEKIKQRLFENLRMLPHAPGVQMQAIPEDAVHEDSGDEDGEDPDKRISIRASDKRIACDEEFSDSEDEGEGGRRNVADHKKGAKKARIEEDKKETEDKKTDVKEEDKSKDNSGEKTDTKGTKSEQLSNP
Sequence of HDAC1 (Q13547 whole entry, species assumed): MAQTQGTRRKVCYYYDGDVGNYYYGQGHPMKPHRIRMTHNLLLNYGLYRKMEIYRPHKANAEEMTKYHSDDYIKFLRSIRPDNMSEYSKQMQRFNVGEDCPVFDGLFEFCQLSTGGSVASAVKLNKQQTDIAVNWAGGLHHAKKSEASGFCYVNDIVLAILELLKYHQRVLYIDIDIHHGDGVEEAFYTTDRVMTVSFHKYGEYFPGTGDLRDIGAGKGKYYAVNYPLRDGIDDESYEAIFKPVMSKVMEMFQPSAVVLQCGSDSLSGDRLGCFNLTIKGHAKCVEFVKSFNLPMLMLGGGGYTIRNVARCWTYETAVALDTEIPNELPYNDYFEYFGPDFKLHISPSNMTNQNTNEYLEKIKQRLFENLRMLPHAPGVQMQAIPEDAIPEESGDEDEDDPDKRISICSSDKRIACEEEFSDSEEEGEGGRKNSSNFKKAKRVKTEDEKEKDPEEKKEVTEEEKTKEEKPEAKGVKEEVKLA

Row | Compound | IC50 [1] | IC50 (HDAC1) | IC50 (HDAC6) | IC50 (MCF7 Breast Tumour Cell) | further results
1 | O=C(CCCCCCN(c1ccccn1)c1cc(-c2ccc(F)cc2)ccn1)NO [Example 21, 7-{[4-(4-Fluoro-phenyl)-pyridin-2-yl]-pyridin-2-yl-amino}-heptanoic acid hydroxyamide] | 1080 nM |  |  |  | 
2 | O=C(CCCCCCN(c1ccccn1)c1cc2ccccc2cn1)NO [Example 14, 7-(Isoquinolin-3-yl-pyridin-2-yl-amino)-heptanoic acid hydroxyamide] | 337 nM | 64 nM | 2 nM | 169 nM | IC50 (HDAC2): 306 nM; IC50 (HDAC9): 145 nM
3 | O=C(CCCCCCN(c1ccccn1)c1cc(-c2ccccc2F)ccn1)NO [Example 26, 7-{[4-(2-Fluoro-phenyl)-pyridin-2-yl]-pyridin-2-yl-amino}-heptanoic acid hydroxyamide] |  |  |  | 200 nM | 
4 | O=C(CCCCCCN(c1ccccn1)c1cc(OCc2ccccc2)ccn1)NO [Example 15, 7-[(4-Benzyloxy-pyridin-2-yl)-pyridin-2-yl-amino]-heptanoic acid hydroxyamide] | 1260 nM | 151 nM | 3 nM | 411 nM | IC50 (HDAC2): 612 nM; IC50 (HDAC9): 423 nM
5 | Cc1ccc(-c2ccnc(N(CCCCCCC(=O)NO)c3ccccn3)c2)cc1 [Example 23, 7-[Pyridin-2-yl-(4-p-tolyl-pyridin-2-yl)-amino]-heptanoic acid hydroxyamide] | 1060 nM |  |  | 77 nM | 
6 | O=C(CCCCCCN(c1ccccn1)c1cc(-c2ccccc2Cl)ccn1)NO [Example 25, 7-{[4-(2-Chloro-phenyl)-pyridin-2-yl]-pyridin-2-yl-amino}-heptanoic acid hydroxyamide] | 1080 nM |  |  | 210 nM | 
7 | CCCOc1ccnc(N(CCCCCCC(=O)NO)c2ccccn2)c1 [Example 18, 7-[(4-Propoxy-pyridin-2-yl)-pyridin-2-yl-amino]-heptanoic acid hydroxyamide] | 822 nM |  |  | 574 nM | 
8 | Cc1cccc(-c2ccnc(N(CCCCCCC(=O)NO)c3ccccn3)c2)c1 [Example 27, 7-[Pyridin-2-yl-(4-m-tolyl-pyridin-2-yl)-amino]-heptanoic acid hydroxyamide] | 1680 nM |  |  | 81 nM | 
9 | O=C(CCCCCCN(c1ccccn1)c1ccc2ccccc2n1)NO [Example 4, N-Hydroxy-7-(pyridin-2-yl(quinolin-2-yl)amino)heptanamide] | 81 nM | 71 nM | 16 nM |  | IC50 (HDAC2): 212 nM; IC50 (HDAC3): 62 nM; IC50 (HDAC4): 545 nM; IC50 (HDAC5): 123 nM; IC50 (HDAC8): 312 nM; IC50 (HDAC9): 90 nM; IC50 (HDAC10): 126 nM; IC50 (HDAC11): 112 nM
10 | O=C(CCCCCCN(c1ccccn1)c1ccc(-c2ccccc2)cn1)NO [Example 12, N-Hydroxy-7-((5-phenylpyridin-2-yl)(pyridin-2-yl)amino)heptanamide] | 310 nM |  |  | 81 nM | 
11 | O=C(CCCCCCN(c1cccnc1)c1ccccn1)NO [Example 20, 7-(Pyridin-3-yl-pyridin-2-yl-amino)-heptanoic acid hydroxyamide] | 539 nM |  |  |  | 
12 | Nc1ccc(-c2ccnc(N(CCCCCCC(=O)NO)c3ccccn3)c2)cc1 [Example 22, 7-{[4-(4-Amino-phenyl)-pyridin-2-yl]-pyridin-2-yl-amino}-heptanoic acid hydroxyamide] | 298 nM |  |  | 39 nM | 
13 | O=C(CCCCCCN(c1ccccn1)c1ccccn1)NO [Example 3, 7-(Dipyridin-2-ylamino)-N-hydroxyheptanamide] | 245 nM |  | 9 nM |  | IC50 (HDAC2): 1540 nM; IC50 (HDAC3): 710 nM; IC50 (HDAC4): 307 nM; IC50 (TNFα): 100 nM
14 | Cc1ccccc1-c1ccnc(N(CCCCCCC(=O)NO)c2ccccn2)c1 [Example 24, 7-[Pyridin-2-yl-(4-o-tolyl-pyridin-2-yl)-amino]-heptanoic acid hydroxyamide] | 1620 nM |  |  | 200 nM | 
15 | O=C(CCCCCCN(c1ccccn1)c1ccc(OCc2ccccc2)cn1)NO [Example 10, 7-((5-(Benzyloxy)pyridin-2-yl)(pyridin-2-yl)amino)-N-hydroxyheptanamide] | 1070 nM | 182 nM | 57 nM | 285 nM | 
16 | O=C(CCCCCN(c1ccccn1)c1ccccn1)NO [Example 2, 6-(Dipyridin-2-ylamino)-N-hydroxyhexanamide] | 2490 nM |  |  | 2340 nM | 
17 | O=C(CCCCCC=C(c1ccccn1)c1ccccn1)NO [Example 5, N-Hydroxy-8,8-di(pyridin-2-yl)oct-7-enamide] | 415 nM | 642 nM | 22 nM |  | 
18 | O=C(CCCCCCC(c1ccccn1)c1ccccn1)NO [Example 6] |  |  |  | 445 nM | 
19 | Cc1ccc(N(CCCCCCC(=O)NO)c2ccccn2)nc1 [Example 9, N-Hydroxy-7-((5-methylpyridin-2-yl)(pyridin-2-yl)amino)heptanamide] | 337 nM | 453 nM | 31 nM | 697 nM | IC50 (HDAC2): 1140 nM; IC50 (HDAC9): 759 nM
20 | O=C(CCCCCCN(c1ccccn1)c1ccc(-c2ccc(F)cc2)cn1)NO [Example 13, 7-((5-(4-Fluorophenyl)pyridin-2-yl)(pyridin-2-yl)amino)-N-hydroxyheptanamide] | 521 nM |  |  | 357 nM | 
21 | Cc1ccnc(N(CCCCCCC(=O)NO)c2ccccn2)c1 [Example 7, N-Hydroxy-7-((4-methylpyridin-2-yl)(pyridin-2-yl)amino)heptanamide] | 778 nM |  |  | 448 nM | 
22 | O=C(CCCCC=C(c1ccccn1)c1ccccn1)NO [Example 1, N-Hydroxy-7,7-di(pyridin-2-yl)hept-6-enamide] | 950 nM | 158 nM | 68 nM | 600 nM | 
23 | O=C(CCCCCCN(c1ccccn1)c1cc(-c2ccccc2)ccn1)NO [Example 8, N-Hydroxy-7-((4-phenylpyridin-2-yl)(pyridin-2-yl)amino)heptanamide] | 493 nM | 116 nM | 19 nM | 1050 nM | 
24 | COc1ccc(N(CCCCCCC(=O)NO)c2ccccn2)nc1 [Example 11, N-Hydroxy-7-((5-methoxypyridin-2-yl)(pyridin-2-yl)amino)heptanamide] | 406 nM | 182 nM | 13 nM | 292 nM | IC50 (HDAC2): 883 nM; IC50 (HDAC9): 759 nM
25 | COc1ccnc(N(CCCCCCC(=O)NO)c2ccccn2)c1 [Example 16, 7-[(4-Methoxy-pyridin-2-yl)-pyridin-2-yl-amino]-heptanoic acid hydroxyamide] | 1080 nM |  |  | 1090 nM | 
26 | CCOc1ccnc(N(CCCCCCC(=O)NO)c2ccccn2)c1 [Example 17, 7-[(4-Ethoxy-pyridin-2-yl)-pyridin-2-yl-amino]-heptanoic acid hydroxyamide] | 598 nM |  |  | 456 nM | 
27 | CC(C)Oc1ccnc(N(CCCCCCC(=O)NO)c2ccccn2)c1 [Example 19, 7-[(4-Isopropoxy-pyridin-2-yl)-pyridin-2-yl-amino]heptanoic acid hydroxyamide] | 326 nM |  |  | 478 nM | 
